US20230129095A1, “PEPTIDE INHIBITORS OF INTERLEUKIN-23 RECEPTOR AND THEIR USE TO TREAT INFLAMMATORY DISEASES” (Protagonist Therapeutics, Inc., priority 2020, published 2023)
*1 amine or outer side, *2 acyl side, *3 side chain or, on linkers, in order; H or OH if unused. Where a SMILES comes first, the peptide text is derived from it. Bridges are numbered along the chain shown (N, C = ends). [ ]: non-standard residue; d: D form. X1 = O=C([C@H](Cc1c[nH]c2c(-c3cccc(C(F)(F)F)c3)cccc12)N[*:1])[*:2]; X8 = COc1cccc(-c2cccc3c(C[C@H](N[*:1])C(=O)[*:2])c[nH]c23)c1; X3 = Cc1cccc(-c2cccc3c(C[C@H](N[*:1])C(=O)[*:2])c[nH]c23)c1; Trp(7-Ph) = N[C@@H](Cc1c[nH]c2c(-c3ccccc3)cccc12)C(=O)O; Abu(4-yl) = O=C([C@H](CC[*:3])N[*:1])[*:2]; 2Nal = N[C@@H](Cc1ccc2ccccc2c1)C(=O)O; Trp(7-thienyl) = 7-thienyl-tryptophan; AEF = NCCOc1ccc(C[C@H](N)C(=O)O)cc1; Pen = CC(C)(S)[C@H](N)C(=O)O; αMeK = C[C@](N)(CCCCN)C(=O)O; Abu = CC[C@H](N)C(=O)O

Key:
[1] = test system: Natural killer (NK) cells; format: cell-based, human
Source text: Where not shown, data was not yet determined.

[2] = Stability in cynomolgus monkey fecal homogenate (anaerobic); format: in vitro ADME; settings: pH 6.8, 20% cynomolgus monkey fecal homogenate, 37° C., up to 24 hours, read-out: t1/2: Monkey Feces anaerobic (converted)
Method: (§1) Studies were carried out in human or cynomolgus monkey fecal homogenate to evaluate gastrointestinal stability of the peptide inhibitors of the present invention.
(§2) Fecal homogenate ([…]) was prepared by adding 4 mL of growth medium (1 liter contains 2 g peptone water powder, 2 g yeast extract, 0.1 g NaCl, 0.04 g KH2PO4, 0.01 g CaCl2.6H2O, 0.01 g MgSO4.7H2O, 2 mL Tween 80, 0.5 g bile salts, 0.5 g L-cysteine HCl, 2 g NaHCO3, and 10 μL Vitamin K, pH adjusted to 6.8, and sterilized by filtration through a 0.22 μm filter) to every gram of feces (pooled freshly collected human or cynomolgus monkey feces). The suspension was vortexed to break up large clumps, and homogenized using a bead mill homogenizer. Centrifuged the homogenate at 2800×g for 15 min. The supernatant is taken out and used for incubations. DMSO stocks (10 mM) were first prepared for the test compounds. Incubations were performed in an anaerobic chamber conditioned at 37° C. Aliquots of the DMSO solutions were dosed into 1.0 mL aliquots of 20% fecal homogenate, which are pre-warmed to 37° C. The final test compound concentration was 20 μM. At each timepoint (0, 20 min, 1, 3, 6, or 24 hours), 100 μL aliquot of each incubation mixture is taken out and added to separate tubes containing 300 μL of 50% acetonitrile/50% methanol and an internal standard to terminate the reaction. Samples were taken out of the anaerobic chamber and stored at 4° C. until the end of the experiment. After the final timepoint is sampled, the tubes were mixed and then centrifuged at 3,000 rpm for 10 minutes. Aliquots of the supernatant were removed, diluted 1:1 into distilled water containing 0.1% formic acid, and analyzed by LC/MS/MS. Percent remaining at each timepoint was calculated based on the peak area response ratio of test to compound to internal standard. Time 0 was set to 100%, and all later timepoints were calculated relative to time 0. Half-lives were calculated by fitting to a first-order exponential decay equation using Graphpad or Excel.

[3] = Stability in human fecal homogenate (anaerobic); format: in vitro ADME; settings: pH 6.8, 20% human fecal homogenate, 37° C., up to 24 hours, read-out: t1/2: Human Feces anaerobic
Method: as §1, §2

Stability in rat plasma = format: in vitro ADME; settings: both sexes, pooled, SD rat plasma, EDTA, 37° C., up to 24 hours, read-out: t1/2: Rat Plasma EDTA
Method: Peptides of interest (20 μM) were incubated with pre-warmed rat plasma (SD rat, mixed gender pooled, EDTA, filtered through 0.22 μm, BioreclamationIVT) at 37° C. Aliquots were taken at various time points up to 24 hours (e.g. 0, 0.25, 1, 3, 6 and 24 hr), and immediately quenched with 4 volumes of organic solvent (acetonitrile/methanol (1:1) and 0.1% formic acid, containing 1 μM internal standard). Quenched samples were stored at 4° C. until the end of the experiment and centrifuged at 4,000 rpm for 10 minutes. The supernatant were diluted 1:1 with deionized water and analyzed using LC-MS. Percentage remaining at each time point was calculated based on the peak area ratio (analyte over internal standard) relative to the initial level at time zero. Half-lives were calculated by fitting to a first-order exponential decay equation using GraphPad.

[4] = Stability in simulated intestinal fluid (SIF); format: in vitro ADME; settings: 37° C.; for SIF t1/2: 100 fold dilution of standard SIF concentration, 20 μM; for half-life at 20 μM: pH 6.8, 100 fold dilution of standard SIF concentration, read-out: SIF t1/2 (converted)
Method: Studies were carried out in simulated intestinal fluid (SIF) and simulated gastric fluid (SGF) to evaluate gastric stability of the peptide inhibitors of the present invention. In addition, studies were carried out to assess redox stability of the peptide inhibitors of the present invention.
SIF was prepared by adding 6.8 g of monobasic potassium phosphate and 10.0 g of pancreatin to 1.0 L of water. After dissolution, the pH was adjusted to 6.8 using NaOH. DMSO stocks (2 mM) were first prepared for the test compounds. Aliquots of the DMSO solutions were dosed into 6 individual tubes, each containing 0.5 mL of SIF, which is pre-warmed to 37° C. The final test compound concentration was 20 μM. The vials were kept in a benchtop Thermomixer® for the duration of the experiment. At each timepoint (0, 5, 10, 20, 40, 60, or 360 minutes or 24 hours), 1.0 mL of acetonitrile containing 1% formic acid was added to one vial to terminate the reaction. Samples were stored at 4° C. until the end of the experiment. After the final timepoint is sampled, the tubes were mixed and then centrifuged at 3,000 rpm for 10 minutes. Aliquots of the supernatant were removed, diluted 1:1 into distilled water containing internal standard, and analyzed by LCMS/MS. Percent remaining at each timepoint was calculated based on the peak area response ratio of test to compound to internal standard. Time 0 was set to 100%, and all later timepoints were calculated relative to time 0. Half-lives were calculated by fitting to a first-order exponential decay equation using Graphpad.

[5] = target: T1, interleukin-23 receptor (IL-23R), human (human, UniProt Q5VWK5 24-629); test: cell-based or functional assay
T1 sequence (looked up): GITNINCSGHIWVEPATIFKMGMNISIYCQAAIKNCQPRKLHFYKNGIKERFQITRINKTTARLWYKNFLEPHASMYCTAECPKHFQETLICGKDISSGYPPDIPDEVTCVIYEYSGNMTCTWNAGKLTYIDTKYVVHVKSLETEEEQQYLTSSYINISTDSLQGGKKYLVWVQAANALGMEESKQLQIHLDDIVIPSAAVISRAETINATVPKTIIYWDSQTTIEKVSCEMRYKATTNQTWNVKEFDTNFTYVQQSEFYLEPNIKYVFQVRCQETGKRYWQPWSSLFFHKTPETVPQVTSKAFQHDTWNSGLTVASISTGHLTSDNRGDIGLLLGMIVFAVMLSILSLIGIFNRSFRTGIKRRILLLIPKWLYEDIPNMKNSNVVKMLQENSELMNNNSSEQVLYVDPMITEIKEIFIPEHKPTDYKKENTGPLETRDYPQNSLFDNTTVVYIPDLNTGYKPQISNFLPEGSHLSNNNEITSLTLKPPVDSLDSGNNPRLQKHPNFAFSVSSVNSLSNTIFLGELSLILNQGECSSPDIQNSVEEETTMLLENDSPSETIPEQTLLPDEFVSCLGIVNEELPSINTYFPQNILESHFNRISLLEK

Row | Molecule | IC50 [1] [nM] | half-life at 20 μM [2] [h] | half-life at 20 μM [3] [h] | half-life at 20 μM (Stability in rat plasma) [h] | SIF t1/2 [4] [h] | half-life at 20 μM [4] [h] | pStat3 HTRF IC50 (DB cells IL23R pSTAT3 cell assay, 0.5 nM IL-23) [5] [nM]
1 | CC(=O)NCCCC[C@@H]1NC(=O)[C@H](Cc2c[nH]c3c(-c4cccc(C(F)(F)F)c4)cccc23)NC(=O)[C@H]([C@@H](C)O)NC(=O)[C@H](CC(N)=O)NC(=O)[C@@H](NC(C)=O)C(C)(C)SSC(C)(C)[C@@H](C(=O)N[C@@H](Cc2ccc(OCCN)cc2)C(=O)N[C@@H](Cc2ccc3ccccc3c2)C(=O)N[C@@](C)(CCCCN)C(=O)N[C@@H](CCCCNC(C)=O)C(=O)N[C@@H](CC(N)=O)C(=O)N[C@H](CCCCN)C(N)=O)NC1=O [Peptide 9, Ac-[Pen]-N-T-[W(7-(3-CF3Ph))]-[Lys(Ac)]-[Pen]-Phe[4-(2-aminoethoxy)]-[2-Nal]-[a-MeLys]-[Lys(Ac)]-N-[(D)Lys)]-NH2] (Ac-[Pen]NT[X1]K(Ac)[Pen][AEF][2Nal][αMeK]K(Ac)N[dK]-NH2; disulfide 1-6) | 9.3 | > 24 | > 24 | > 24 | 24 |  | 
2 | CC(=O)NCCCC[C@@H]1NC(=O)[C@H](Cc2c[nH]c3c(-c4ccccc4)cccc23)NC(=O)[C@H]([C@@H](C)O)NC(=O)[C@H](CCC(N)=O)NC(=O)[C@@H](NC(C)=O)CCSC[C@@H](C(=O)N[C@@H](Cc2ccc(OCCN)cc2)C(=O)N[C@@H](Cc2ccc3ccccc3c2)C(=O)N[C@@](C)(CCCCN)C(=O)N[C@@H](CCCCNC(C)=O)C(=O)N[C@@H](CC(N)=O)C(=O)N[C@H](CC(C)C)C(N)=O)NC1=O [Peptide 18, Ac-[Abu]-Q-T-[W(7-Ph)]-[Lys(Ac)]-[Cys]-Phe[4-(2-aminoethoxy)]-[2-Nal]-[a-MeLys]-[Lys(Ac)]-N-[(D)Leu]-NH2] (Ac-[Abu(4-yl)]QT[Trp(7-Ph)]K(Ac)C[AEF][2Nal][αMeK]K(Ac)N[dL]-NH2; thioether 1-6) | 6.28 | > 24 | > 24 | > 24 |  | 19.8 | 
3 | CC(=O)NCCCC[C@@H]1NC(=O)[C@H](Cc2c[nH]c3c(-c4cccc(C)c4)cccc23)NC(=O)[C@H]([C@@H](C)O)NC(=O)[C@H](CC(N)=O)NC(=O)[C@@H](NC(C)=O)C(C)(C)SSC(C)(C)[C@@H](C(=O)N[C@@H](Cc2ccc(OCCN)cc2)C(=O)N[C@@H](Cc2ccc3ccccc3c2)C(=O)N[C@@](C)(CCCCN)C(=O)N[C@@H](CCCCNC(C)=O)C(=O)N[C@@H](CC(N)=O)C(=O)N[C@H](CCCCN)C(N)=O)NC1=O [Peptide 7, Ac-[Pen]-N-T-[W(7-(3-MePh))]-[Lys(Ac)]-[Pen]-Phe[4-(2-aminoethoxy)]-[2-Nal]-[a-MeLys]-[Lys(Ac)]-N-[(D)Lys)]-NH2] (Ac-[Pen]NT[X3]K(Ac)[Pen][AEF][2Nal][αMeK]K(Ac)N[dK]-NH2; disulfide 1-6) | 5.87 | > 24 | > 24 | > 24 | 24 |  | 
4 | COc1cccc(-c2cccc3c(C[C@@H]4NC(=O)[C@H]([C@@H](C)O)NC(=O)[C@H](CC(N)=O)NC(=O)[C@@H](NC(C)=O)C(C)(C)SSC(C)(C)[C@@H](C(=O)N[C@@H](Cc5ccc(OCCN)cc5)C(=O)N[C@@H](Cc5ccc6ccccc6c5)C(=O)N[C@@](C)(CCCCN)C(=O)N[C@@H](CCCCNC(C)=O)C(=O)N[C@@H](CC(N)=O)C(=O)N[C@H](CCCCN)C(N)=O)NC(=O)[C@H](CCCCNC(C)=O)NC4=O)c[nH]c23)c1 [Peptide 8, Ac-[Pen]-N-T-[W(7-(3-OMePh))][Lys(Ac)]-[Pen]-Phe[4-(2-aminoethoxy)]-[2-Nal]-[a-MeLys]-[Lys(Ac)]-N-[(D)Lys)]-NH2] (Ac-[Pen]NT[X8]K(Ac)[Pen][AEF][2Nal][αMeK]K(Ac)N[dK]-NH2; disulfide 1-6) |  | > 24 | > 24 | > 24 | 24 |  | 
5 | CC(=O)NCCCC[C@@H]1NC(=O)[C@H](Cc2c[nH]c3c(-c4ccccc4)cccc23)NC(=O)[C@H]([C@@H](C)O)NC(=O)[C@H](CCC(N)=O)NC(=O)[C@@H](NC(C)=O)CCSC[C@@H](C(=O)N[C@@H](Cc2ccc(OCCN)cc2)C(=O)N[C@@H](Cc2ccc3ccccc3c2)C(=O)N[C@@](C)(CCCCN)C(=O)N[C@@H](CCCCNC(C)=O)C(=O)N[C@@H](CC(N)=O)C(=O)N[C@H](CCCCN)C(N)=O)NC1=O [Peptide 19, Ac-[Abu]-Q-T-[W(7-Ph)]-[Lys(Ac)]-[Cys]-Phe[4-(2-aminoethoxy)]-[2-Nal]-[a-MeLys]-[Lys(Ac)]-N-[(D)Lys]-NH2] (Ac-[Abu(4-yl)]QT[Trp(7-Ph)]K(Ac)C[AEF][2Nal][αMeK]K(Ac)N[dK]-NH2; thioether 1-6) |  | 21.8 | > 24 | > 24 |  | 17.8 | 
6 | Ac-[dR][Abu]QT[Trp(7-Ph)]K(Ac)C[AEF][2Nal][αMeK]K(Ac)N-NH2 (thioether 2-7) [Peptide No. 4 (SEQ ID No. 4)] |  |  |  |  |  |  | 49.4
7 | Ac-[dR][Abu]QT[Trp(7-Ph)]K(Ac)C[AEF][2Nal][αMeK]K(Ac)N[dL]-NH2 (thioether 2-7) [Peptide No. 3 (SEQ ID No. 3)] |  |  |  |  |  |  | 9.42
8 | Ac-[dR][Abu]QT[Trp(7-Ph)]K(Ac)C[AEF][2Nal][αMeK]K(Ac)N[dK]-NH2 (thioether 2-7) [Peptide No. 5 (SEQ ID No. 5)] |  |  |  |  |  |  | 8.53
9 | Ac-[Pen]NT[Trp(7-thienyl)]Q[Pen][AEF][2Nal][αMeK]K(Ac)N[dK]-NH2 (disulfide 1-6) [Peptide No. 2 (SEQ ID No. 2)] |  |  |  |  |  |  | 1.21
10 | Ac-[Abu]QT[Trp(7-Ph)]K(Ac)C[AEF][2Nal][αMeK]K(Ac)N[dK]-NH2 (thioether 1-6) [Peptide No. 19 (SEQ ID No. 19)] |  |  |  |  |  |  | 2.57
